# From patent publication US9120820B2, “Fluorescent molecular probes for use in assays that measure test compound competitive binding with SAM-utilizing proteins” (CAYMAN CHEMICAL COMPANY, INCORPORATED, priority 2011, dated 2015)
# Legend:
# SET7/9 [1] = molecular target: T1, SET7/9 (Homo sapiens, UniProt Q8WTS6); experiment: Sinefungin Probe 1A competition FP assay with SET7/9; assay type: binding; conditions: for IC50: read-out: IC50 for displacement of Sinefungin Probe 1A
# T1 construct: purchased Cayman 10320
# T1 sequence (Q8WTS6 1-366): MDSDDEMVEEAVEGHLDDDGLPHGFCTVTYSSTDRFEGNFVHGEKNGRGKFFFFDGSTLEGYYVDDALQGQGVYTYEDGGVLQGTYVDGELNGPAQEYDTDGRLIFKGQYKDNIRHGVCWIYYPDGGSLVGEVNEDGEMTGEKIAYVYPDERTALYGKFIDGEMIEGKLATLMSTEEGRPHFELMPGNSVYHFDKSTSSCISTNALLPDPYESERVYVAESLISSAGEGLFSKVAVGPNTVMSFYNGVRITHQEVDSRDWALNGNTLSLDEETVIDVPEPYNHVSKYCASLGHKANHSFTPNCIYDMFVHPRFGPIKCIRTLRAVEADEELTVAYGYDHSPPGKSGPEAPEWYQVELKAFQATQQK
# Procedure: Methods: Carboxymethyl cellulose-purified SAM, SAH (Cayman Catalog #700145), and sinefungin were diluted in a semi-Log manner in FP buffer (Cayman Catalog #600028). Five microliters of these dilutions were added to the wells of a low-volume, black, 384-well plate (Nunc #264705). […] The assay was allowed to equilibrate at room temperature for 30 minutes in the dark. Fluorescence polarization was measured as above. The experiment was performed two independent times, each in duplicate.
# SET7/9 [2] = molecular target: T1, SET7/9; experiment: SET7/9 SAM-Screener high-throughput FP assay, Sinefungin Probe 1A displacement; assay type: binding; conditions: SET7/9; sinefungin 50 μM; SAM
# Procedure: Methods: A collection of 14,400 compounds from the Maybridge HitFinder collection of compounds was assayed for the displacement of Sinefungin Probe 1A from SET7/9 in a high-throughput manner using the SET7/9 SAM-Screener FP assay Cayman Catalog Item #600490). Thirty microliters of assay buffer (50 mM Tris pH 8.0, 50 mM KCl, 5 mM CHAPS, 2 mM DTT) was added to every well of a black 384-well polystyrene microtiter plate (Thermo-Fisher 364576). To every well, excluding control wells, was added one microliter of a DMSO solution containing a test compound. Control wells received either 1 μl DMSO or 1 μl of a sinefungin solution. The final concentration of sinefungin control or test compounds in the assay was 50 μM or 10 μM, respectively. To every well of the plate was added 10 μl of a SET7/9 solution to give a final assay concentration of 30 nM. After a 15-minute incubation at ambient temperature, 10 μl of Sinefungin Probe 1A solution was added to every well to give a final assay concentration of 10 nM in a total assay volume of 50 μl Samples were analyzed using a Biotek Synergy H4 plate reader in fluorescence polarization mode after a 30-minute incubation at ambient temperature in the dark. Data were analyzed using GeneData (v. 9.01). […]
# SET7/9 [3] = molecular target: T1, SET7/9; experiment: Fluorescence polarization saturation binding of fluorescent probe to SET7/9; conditions: FIG. 11A, FIG. 12
# Procedure: Methods: The experiment was performed once, with two replicate wells for all methyltransferases per condition. The sole exception to this is NSD2 (see details below). The assay was performed in a ½ area, black, 96-well plate (Corning #3686) in a final volume of 30 μL. Methyltransferases (Table 1) were serially diluted two-fold in FP buffer (Cayman Catalog #600028) and 15 μL of a given dilution were added per well to the assay plate. Fifteen microliters of sinefungin probe 1A (10 nM) were added to each well, giving a final sinefungin probe 1A concentration of 5 nM. This concentration of sinefungin probe 1A was chosen because it had at least a 10-fold increase in fluorescence (excitation max 575 nm/emission max 615 nm) over background (buffer). The mixture was incubated in the dark at room temperature for 30 minutes and its fluorescence polarization was read using a BioTek Synergy 4.
# SET7/9 [4] = molecular target: T1, SET7/9; experiment: Sinefungin Probe 1B displacement FP assay with SET7/9 (Epigenetics Screening Library profiling); assay type: binding; conditions: SET7/9, FIG. 11B
# Procedure: Profiling of a pre-production version of the Cayman Chemical Epigenetics Screening Library (Cayman Catalog Item #11076) against SET7/9 and GLP was performed in a similar manner using Sinefungin Probe 1B. For GLP, the enzyme concentration was raised to 500 nM to produce a robust signal:noise ratio. Data were analyzed in GraphPad Prism (v. 5.04) and/or GeneData (v. 9.01).
# An analog of Sinefungin Probe 1A, Sinefungin Probe 1B, wherein the hexyl portion of the linker moiety is replaced with PEG3 and the Cal Fluor® Red 610 fluorophore moiety is replaced with the “Fluor585” (Texas Red)-derived fluorophore moiety, was tested for the ability to bind several methyltransferases, including SET7/9. […] Similar data have been observed for GLP and G9a.
# [5] = 30 nM SET7/9, 10 nM Sinefungin Probe 1A, FIG. 3
structure (smiles),measurement,setting,value
"Nc1ncnc2c1ncn2[C@@H]1O[C@H](CSCC[C@H](N)C(=O)O)[C@@H](O)[C@H]1O [SAH, S-adenosylhomocysteine]",competition with probe binding,SET7/9 [1]; [5],did not compete with probe binding at concentrations below 1 μM
"C[S+](CC[C@H](N)C(=O)O)C[C@H]1O[C@@H](n2cnc3c(N)ncnc32)[C@H](O)[C@@H]1O (stereo partly shown) [SAM, S-Adenosylmethionine, reference compound]",IC50,SET7/9 [1]; [5],130 nM
same,inhibition of probe binding (controls),SET7/9 [2],fully inhibits probe binding
Nc1ncnc2c1ncn2[C@@H]1O[C@H](C[C@@H](N)CC[C@H](N)C(=O)O)[C@@H](OCc2cnnn2CCCCCCNC(=O)OC2CCN(C(=O)c3ccccc3C3=c4cc5c6c(c4Oc4c3cc3c7c4CCCN7CCC3)CCC[N+]=6CCC5)CC2)[C@H]1O [Sinefungin Probe 1B],affinity for SET7/9 compared with the other sinefungin probes,SET7/9 [3],essentially identical affinities
"Nc1ncnc2c1ncn2[C@@H]1O[C@H](C[C@@H](N)CC[C@H](N)C(=O)O)[C@@H](O)[C@H]1O [sinefungin, Sinefungin]",IC50,SET7/9 [1]; [5],220 nM
same,Ki,"SET7/9 [1]; SET7/9, read-out: Ki for displacement of Sinefungin Probe 1A",168 nM
same,Ki,SET7/9 [4],120 nM
